Measurements taken from publication PMC12518693, “Potent Fluorescent Probe for Target‐Engagement Studies of Allosteric Pyruvate Kinase Modulators” (Angewandte Chemie (International Ed. in English), 2025).

Key:
[1] = tested on: HEK293 cells; test: Photostability in HEK293 cells under continuous 488 nm irradiation; format: cell-based; settings: HEK293, 1 µM, 2 h, continuous 488 nm scanning 10 min
Description: Photostability of tracer IV was subsequently evaluated by treating HEK293 cells with the tracer (1 µM) for 2 h, followed by continuous scanning using 488 nm laser excitation for 10 min.
Figure S7. Photobleaching curve of compound IV (1 µM) in HEK293 cells under continuous laser irradiation. HEK293 cells were exposed to continuous excitation at 488 nm for 10 minutes using the same imaging settings as applied throughout this study. Integrated fluorescence intensity was recorded over time from an identical region of interest (ROI) across the time-lapse images to assess photostability.

[2] = target: PKM2 (Homo sapiens, UniProt P14618); test: Native PAGE in-gel fluorescence, PKM2; format: binding; parameters: made in house
PKM2, sequence (P14618 whole entry): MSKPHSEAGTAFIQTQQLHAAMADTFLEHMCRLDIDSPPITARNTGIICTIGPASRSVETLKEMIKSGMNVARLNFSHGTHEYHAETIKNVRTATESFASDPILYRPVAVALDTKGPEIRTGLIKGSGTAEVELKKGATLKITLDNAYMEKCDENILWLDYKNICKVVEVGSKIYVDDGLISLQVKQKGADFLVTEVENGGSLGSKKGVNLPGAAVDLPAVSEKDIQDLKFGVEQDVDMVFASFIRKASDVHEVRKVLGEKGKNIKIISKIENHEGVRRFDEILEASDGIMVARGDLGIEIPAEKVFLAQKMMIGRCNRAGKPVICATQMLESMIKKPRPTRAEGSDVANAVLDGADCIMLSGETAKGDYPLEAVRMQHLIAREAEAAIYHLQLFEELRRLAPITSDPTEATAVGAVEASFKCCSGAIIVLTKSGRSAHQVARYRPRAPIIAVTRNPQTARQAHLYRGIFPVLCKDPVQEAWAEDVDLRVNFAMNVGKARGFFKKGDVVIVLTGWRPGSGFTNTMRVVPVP
Description: To study the interaction of IV with PKLNluc and its oligomers, native PAGE was performed (Figure 4). Recombinant PKLNluc was incubated for 2 h with IV (0.15–10 µM) or DMSO and loaded onto gels. […] Colloidal blue staining and western blotting with anti‐PKL antibodies confirmed the predominance and identity of the bands (Figure S11a,d). […] PKM2 and PKL exist in equilibrium between oligomeric states, with PKM2 mainly dimeric when unbound.^[ [18] ^] As oligomerization regulates PK function,^[ [11], [54] ^] PKLNluc oligomerization was compared to PKLwt and PKM2 (Figure 4b,c). […] Colloidal blue and anti‐PKM2 blots confirmed PKM2 was mostly monomeric, explaining the lack of binding (Figure S11).
Given that FBP levels vary widely in cells,^[ [55], [56], [57] ^] and that it binds PKL with nanomolar affinity, ^[ [58] ^] IV binding to PKLwt was tested with and without FBP.
Recombinant PKLNLuc (4 x 950 ng) was incubated for 1 hour at ambient temperature with different concentrations of compound IV in a total volume of 60 µL Tris-HCl buffer pH 7.4 (50 mM Tris, 100 mM KCl, 10 mM MgCl2, 0.05% Tween 20). […]
A ChemiDoc imager (Bio-Rad, Alexa 488 filter) was used for fluorescence detection of compound IV bound to the proteins. […] The images of the in-gel fluorescence and luminescence detection were superimposed. […]

CN(C)c1ccc(S(=O)(=O)c2ccc3c(=O)n(Cc4cc[nH]n4)ncc3c2)c2nonc12 [Compound IV, 2-((1H-Pyrazol-3-yl)methyl)-6-((7-(dimethylamino)benzo[c][1,2,5]oxadiazol-4-yl)sulfonyl)phthalazin-1(2H)-one]
decrease of fluorescence intensity [1]: approximately 6% | in-gel fluorescence labeling of PKM2 ([2]; IV 2.5 or 10 µM with FBP 10 µM, PKM2 tetrameric): no fluorescence | in-gel fluorescence labeling of PKM2 ([2]; IV 2.5 or 10 µM, without FBP): no fluorescence was detected
